# In patent US10300042B2, “Apremilast for the treatment of a liver disease or a liver function abnormality” (Celgene Corporation, priority 2014, dated 2019):
# Columns and labels:
# [1] = test system: TNF-α; test: Inhibition of TNF-α production in a mouse model; format: in vivo
# Description: (§1) The test methods were as described in WO 03/080049; Muller et al., J. Med. Chem., 1996, 39:3238; and Muller et al., Bioorg. Med. Chem. Lett., 1999, 9:1625-30.
# [2] = test system: Aspartate Aminotransferase; test: AST levels in PSA-005 (psoriatic arthritis); format: in vivo, human; settings: for AST High to Normal, percent of patients / AST Net Benefit / AST Normal to High, percent of patients: end of treatment (week 24)
# Description: (§2) Apremilast was studied in a Phase 3 trial in patients with active psoriatic arthritis who have not been previously treated with disease-modifying antirheumatic drugs. […] The improvement in mild baseline liver function test abnormalities has been observed with apremilast daily use without any prescribed changes in physical activity, social or dietary habits. […] See Tables 25 to 34 from PSA-005 studies.
# [3] = test system: PDE1; test: PDE1 enzyme assay; format: biochemical; settings: at 10 μM
# Experimental: (§3) PDE1, 2, 3 and 5 enzyme assays were prepared as described by Hidaka and Asano. Biochem. Biophys. Acta., 1976, 429:485; see also Nicholsen et al., Trends Pharmaco. Sci., 1991, 12:19. The PDE6 enzyme assay was prepared according to Baehr et al., J. Biol. Chem., 1979, 254:11669 and Gillespie et al., Mol. Pharm., 1989, 36: 773. The PDE7 enzyme assay was prepared according to Bloom and Beavo. Proc. Natl. Acad. Sci. USA, 1996, 93:14188-92.
# [4] = test system: Alanine Aminotransferase; test: ALT levels in PSA-005 (psoriatic arthritis); format: in vivo, human; settings: for ALT High to Normal, percent of patients / ALT Net Benefit / ALT Normal to High, percent of patients: end of treatment (week 24)
# Description: as §2
# [5] = test system: TNF-α; test: Inhibition of TNF-α production in PBMCs; format: cell-based; settings: PBMC
# Description: as §1
# [6] = biological target: PDE5 (Homo sapiens, UniProt O76074); test: PDE5 enzyme assay; format: biochemical
# Experimental: as §3
# [7] = test system: PDE3; test: PDE3 enzyme assay; format: biochemical; settings: at 10 μM
# Experimental: as §3
# [8] = test system: Aspartate Aminotransferase; test: AST levels in PSOR-008 and PSOR-009 (plaque psoriasis); format: in vivo, human; settings: for AST High, % of patients / AST Low, % of patients / AST Normal, % of patients: Week 16, 30 mg BID
# Experimental: Apremilast was studied in Phase 3 trials in patients with moderate to severe plaque psoriasis. […] The improvement in mild baseline liver function test abnormalities has been observed with apremilast daily use without any prescribed changes in physical activity, social or dietary habits. During the course of the study, there was observed a higher proportion of subjects in the apremilast treatment group (30 mg BID) with normal LFTs (i.e. normal levels of ALT and AST) at subsequent placebo-controlled study visits at week 16. See Tables 11 to 16 from PSOR-008 and PSOR-009 studies.
# [9] = Baseline High, Week 24, 20 mg BID
# [10] = Baseline High, Week 24, 30 mg BID
# [11] = Baseline Normal, Week 24, 20 mg BID
# [12] = Baseline Normal, Week 24, 30 mg BID
# [13] = Baseline Total, Week 24, 20 mg BID
# [14] = Baseline Total, Week 24, 30 mg BID
# [15] = 30 BID, end of treatment (week 16)
compound,measurement,setting,value
"CCOc1cc([C@@H](CS(C)(=O)=O)N2C(=O)c3cccc(NC(C)=O)c3C2=O)ccc1OC [Apremilast, (+)-2-[1-(3-ethoxy-4-methoxyphenyl)-2-methylsulfonylethyl]-4-acetylaminoisoindoline-1,3-dione]","EC50, TNF-α production",[1],0.05 mg/kg
same,"AST High to Normal, percent of patients",[2]; 20 BID,60.0%
same,AST Net Benefit,[2]; 20 BID,37.5%
same,"AST Normal to High, percent of patients",[2]; 20 BID,2.0%
same,"AST High to Normal, percent of patients",[2]; 30 BID,75.0%
same,AST Net Benefit,[2]; 30 BID,60.0%
same,"AST Normal to High, percent of patients",[2]; 30 BID,2.1%
same,"AST High to Normal, Difference between Placebo and APR 30 BID","[2]; 30 BID, week 24",25%
same,"AST Net Benefit, Difference between Placebo and APR 30 BID","[2]; 30 BID, week 24",35.0%
same,"AST Normal to High, Difference between Placebo and APR 30 BID","[2]; 30 BID, week 24",−1.8%
same,"AST High to Normal, Difference between Placebo and APR 30 BID","[2]; 30 BID, week 24, listed as APR",25.0%
same,"AST High, % of patients",[2]; [9],40.0%
same,"AST Low, % of patients",[2]; [9],0.0%
same,"AST Normal, % of patients",[2]; [9],60.0%
same,"AST High, % of patients",[2]; [10],25.0%
same,"AST Low, % of patients",[2]; [10],0.0%
same,"AST Normal, % of patients",[2]; [10],75.0%
same,"AST High, % of patients",[2]; [11],2.0%
same,"AST Low, % of patients",[2]; [11],0.0%
same,"AST Normal, % of patients",[2]; [11],98.0%
same,"AST High, % of patients",[2]; [12],2.1%
same,"AST Low, % of patients",[2]; [12],0.0%
same,"AST Normal, % of patients",[2]; [12],97.9%
same,"AST High, % of patients",[2]; [13],3.2%
same,"AST Low, % of patients",[2]; [13],0.0%
same,"AST Normal, % of patients",[2]; [13],96.8%
same,"AST High, % of patients",[2]; [14],3.9%
same,"AST Low, % of patients",[2]; [14],0.0%
same,"AST Normal, % of patients",[2]; [14],96.1%
same,Baseline High AST: High %,"[2]; Week 4, 20 mg BID",71.4%
same,Baseline High AST: Normal %,"[2]; Week 4, 20 mg BID",28.6%
same,Baseline High AST: High %,"[2]; Week 4, 30 mg BID",50.0%
same,Baseline High AST: Normal %,"[2]; Week 4, 30 mg BID",50.0%
same,Baseline High AST: High %,"[2]; Week 16, 20 mg BID",20.0%
same,Baseline High AST: Normal %,"[2]; Week 16, 20 mg BID",80.0%
same,Baseline High AST: High %,"[2]; Week 16, 30 mg BID",41.7%
same,Baseline High AST: Normal %,"[2]; Week 16, 30 mg BID",58.3%
same,Baseline High AST: High %,"[2]; Week 24, 20 mg BID",40.0%
same,Baseline High AST: Normal %,"[2]; Week 24, 20 mg BID",60.0%
same,Baseline High AST: High %,"[2]; Week 24, 30 mg BID",25.0%
same,Baseline High AST: Normal %,"[2]; Week 24, 30 mg BID",75.0%
same,% inhibition PDE1,[3],23%
same,"ALT High to Normal, percent of patients",[4]; 20 BID,87.5%
same,ALT Net Benefit,[4]; 20 BID,53.8%
same,"ALT Normal to High, percent of patients",[4]; 20 BID,3.3%
same,"ALT High to Normal, percent of patients",[4]; 30 BID,72.7%
same,ALT Net Benefit,[4]; 30 BID,44.4%
same,"ALT Normal to High, percent of patients",[4]; 30 BID,4.9%
same,"ALT High to Normal, Difference between Placebo and APR 30 BID","[4]; 30 BID, week 24",22.7%
same,"ALT Net Benefit, Difference between Placebo and APR 30 BID","[4]; 30 BID, week 24",24.4%
same,"ALT Normal to High, Difference between Placebo and APR 30 BID","[4]; 30 BID, week 24",−1.0%
same,"ALT High to Normal, Difference between Placebo and APR 30 BID","[4]; 30 BID, week 24, listed as APR",22.7%
same,"ALT High, % of patients",[4]; [9],12.5%
same,"ALT Low, % of patients",[4]; [9],0.0%
same,"ALT Normal, % of patients",[4]; [9],87.5%
same,"ALT High, % of patients",[4]; [10],27.3%
same,"ALT Low, % of patients",[4]; [10],0.0%
same,"ALT Normal, % of patients",[4]; [10],72.7%
same,"ALT High, % of patients",[4]; [11],3.3%
same,"ALT Low, % of patients",[4]; [11],0.0%
same,"ALT Normal, % of patients",[4]; [11],96.7%
same,"ALT High, % of patients",[4]; [12],4.9%
same,"ALT Low, % of patients",[4]; [12],0.0%
same,"ALT Normal, % of patients",[4]; [12],95.1%
same,"ALT High, % of patients",[4]; [13],3.8%
same,"ALT Low, % of patients",[4]; [13],0.0%
same,"ALT Normal, % of patients",[4]; [13],96.2%
same,"ALT High, % of patients",[4]; [14],6.5%
same,"ALT Low, % of patients",[4]; [14],0.0%
same,"ALT Normal, % of patients",[4]; [14],93.5%
same,Baseline High ALT: High %,"[4]; Week 4, 20 mg BID",30.0%
same,Baseline High ALT: Normal %,"[4]; Week 4, 20 mg BID",70.0%
same,Baseline High ALT: High %,"[4]; Week 4, 30 mg BID",72.7%
same,Baseline High ALT: Normal %,"[4]; Week 4, 30 mg BID",27.3%
same,Baseline High ALT: High %,"[4]; Week 16, 20 mg BID",12.5%
same,Baseline High ALT: Normal %,"[4]; Week 16, 20 mg BID",87.5%
same,Baseline High ALT: High %,"[4]; Week 16, 30 mg BID",36.4%
same,Baseline High ALT: Normal %,"[4]; Week 16, 30 mg BID",63.6%
same,Baseline High ALT: High %,"[4]; Week 24, 20 mg BID",12.5%
same,Baseline High ALT: Normal %,"[4]; Week 24, 20 mg BID",87.5%
same,Baseline High ALT: High %,"[4]; Week 24, 30 mg BID",27.3%
same,Baseline High ALT: Normal %,"[4]; Week 24, 30 mg BID",72.7%
same,IC50,[5],77 nM
same,inhibition at 10 µM,[6],3%
same,% inhibition PDE3,[7],20%
same,"AST High to Normal, percent of patients",[8]; [15],60.3%
same,AST Net Benefit,[8]; [15],46.3%
same,"AST Normal to High, percent of patients",[8]; [15],2.8%
same,"AST High to Normal, Difference (APR 30 BID vs Placebo)","[8]; 30 BID, week 16",17.9%
same,"AST Net Benefit, Difference (APR 30 BID vs Placebo)","[8]; 30 BID, week 16",12.2%
same,"AST Normal to High, Difference (APR 30 BID vs Placebo)","[8]; 30 BID, week 16",0.3%
same,"AST High to Normal, Difference (APR 30 BID vs Placebo)","[8]; 30 BID, week 16, listed as APR",17.9%
same,"AST High, % of patients",[8]; Baseline High,39.7%
same,"AST Low, % of patients",[8]; Baseline High,0.0%
same,"AST Normal, % of patients",[8]; Baseline High,60.3%
same,"AST High, % of patients",[8]; Baseline Normal,2.8%
same,"AST Low, % of patients",[8]; Baseline Normal,0.0%
same,"AST Normal, % of patients",[8]; Baseline Normal,97.2%
same,"AST High, % of patients",[8]; Baseline Total,5.9%
same,"AST Low, % of patients",[8]; Baseline Total,0.0%
same,"AST Normal, % of patients",[8]; Baseline Total,94.1%
